Reference: paper PMC9785280, “Synthesis, Antiproliferative Evaluation and QSAR Analysis of Novel Halogen- and Amidino-Substituted Benzothiazoles and Benzimidazoles” (International Journal of Molecular Sciences, 2022)
Where two headings read alike, the source gives them in different places.

Key:
[1] = tested on: MDCK1 (Madin–Darby canine kidney) cells; assay: MTT antiproliferative assay, non-tumor MDCK1 cells; assay type: cell-based; settings: Canis lupus familiaris, MDCK1, 72 h, mean ± SD of three independent experiments, normal cells
How it was run: (§1)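 72 h growth inhibition; cpds 10^−7–10^−4 M; DMEM/10% FBS (adherent) or RPMI/10% FBS (suspension), 37 °C/5% CO2; MTT 4 h; formazan in DMSO (adherent) or 10% SDS/0.01 M HCl (suspension); OD 595 nm; GI50 via variable-slope fit.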

[2] = tested on: SW620 (colorectal adenocarcinoma, metastatic) cells; assay: MTT antiproliferative assay, SW620; assay type: cell-based, human; settings: for IC50: Homo sapiens, SW-620
Procedure: (§2) The growth inhibition activity was assessed according to the slightly modified procedure performed at the National Cancer Institute, Developmental Therapeutics Program.
(§3) Examined compounds were dissolved in DMSO (1 × 10^−2 M). The experiments were carried out on seven human tumor cell lines and two normal cell lines. The following cell lines were used: HeLa (human cervical adenocarcinoma; purchased from ATCC), CaCo-2 (human colorectal adenocarcinoma), HuT78 (T-cell lymphoma), THP-1 (acute monocytic leukemia), SW620 (colorectal adenocarcinoma, metastatic), MDA-MB-231 (human breast adenocarcinoma), HL60 (promyelocytic leukemia cell line), foreskin fibroblast cells (BJ) and MDCK1 (Madine–Darby canine kidney fibroblast like cells). MDCK1 cells were used between 24 and 26 passages.
(§4) Adherent cells were cultured in the Dulbecco’s modified Eagle medium—DMEM (Gibco, EU) supplemented with 10 % heat-inactivated fetal bovine serum (FBS, Gibco, EU), 2 mM glutamine, and 100 U/0.1 mg penicillin/streptomycin. Cells on suspension were cultured in RPMI 1640 (Gibco, EU) medium supplemented with 10 % FBS (Gibco, EU), 2 mM glutamine, 1 mM sodium pyruvate, 10 mM HEPES. Cells were grown in humidified atmosphere under the conditions of 37 °C/5% of CO2 gas in the CO2 incubator (IGO 150 CELLlife^TM, JOUAN, Thermo Fisher Scientific, Waltham, MA, USA). A erythrosin B (Sigma-Aldrich, St. Louis, MO, USA) dye exclusion method was used to assess cell viability before plating.
(§5) Adherent cells (HeLa, CaCo-2, MCF-7 and MDCK-1) were plated in 96-well flat bottom plates (Greiner, Frickenhausen, Austria) at a concentration of 2 × 10^4 cells/mL. Suspension cells (THP-1 and HuT78) were plated in 96-well microtiter plates (Sarstead, Newton, USA) at a concentration of 1 × 10^5 cells/mL. Twenty-four hours later, cells were treated with test agents in […] 10-fold dilutions ([…] to 10^−4 M) and incubated for further 72 h. Working dilutions were freshly prepared on the day of testing. The solvent was also tested for eventual inhibitory activity by adjusting its concentration to be the same as in working concentrations. After 72 h of incubation, the cell growth rate was evaluated by performing the MTT assay, which detects dehydrogenase activity in viable cells. For this purpose, upon completion of the incubation period, growth medium was discarded and 50 μL of MTT was added to each well at a concentration of 5 mg/mL. After four hours of incubation at 37 °C, water insoluble MTT-formazan crystals were dissolved in 150 μL of dimethyl-sulfoxide (DMSO) for adherent cells, and in 10 % SDS with 0.01 M/L HCl for cells grown in suspension. The absorbance (OD, optical density) was measured on a microplate reader (iMark, BIO RAD, Hercules, CA, USA) at 595 nm.
(§6) Percent of life cells was calculated as follows: % = OD (sample)–OD (background)/OD (control)–OD (background) × 100.
(§7) Optical density (OD) of background for adherent cells is the OD of MTT solution and DMSO; OD (background) for suspension cells is OD of the culture medium with MTT and 10% SDS with 0.01 M/L HCl; OD (control) is the OD of the cells growth without tested compounds.
(§8) Calculation of GI50 value curves and QC analysis is performed by using the Excel tools and GraphPadPrism software (La Jolla, CA), v. 5.03. Briefly, individual concentration effect curves are generated by plotting the logarithm of the concentration of tested compounds(X) vs. corresponding percent inhibition values (Y) using least squares fit. The best fit GI50 values are calculated using Log (inhibitor) versus normalized response—Variable slope equation, where Y Ľ 100/(1 ţ 10 ((LogIC50 _ X) * HillSlope)). QC criteria parameters (Z0, S:B, R2, HillSlope) were checked for every GI50 curve.

[3] = tested on: MDA-MB-231 (human breast adenocarcinoma) cells; assay: MTT antiproliferative assay, MDA-MB-231; assay type: cell-based; settings: for IC50: Homo sapiens, MDA-MB-231, 72 h, MTT, mean ± SD of three independent experiments; for SI (MDCK) MDA-MB-231: SI = IC50 MDCK1 / IC50 MDA-MB-231
Procedure: as §2, §3, §4, §5, §6, §7, §8

human fibroblasts (BJ) = assay: MTT antiproliferative assay, normal BJ fibroblasts; assay type: cell-based; settings: for IC50: Homo sapiens, Fibroblast, 72 h, MTT, mean ± SD of three independent experiments, normal cells
How it was run: as §1

[4] = tested on: THP1 (human monocytic leukemia) cells; assay: MTT antiproliferative assay, THP1; assay type: cell-based; settings: for IC50: Homo sapiens, THP-1, 72 h, MTT, mean ± SD of three independent experiments; for SI (MDCK) THP1: SI = IC50 MDCK1 / IC50 THP1; for SI (BJ) THP1: SI = IC50 BJ / IC50 THP1
Procedure: as §2, §3, §4, §5, §6, §7, §8

[5] = tested on: HeLa (cervical adenocarcinoma) cells; assay: MTT antiproliferative assay, HeLa; assay type: cell-based; settings: Homo sapiens, 72 h, mean ± SD of three independent experiments
How it was run: as §1

[6] = tested on: CaCo-2 (colon adenocarcinoma) cells; assay: MTT antiproliferative assay, CaCo-2; assay type: cell-based, human; settings: for IC50: Homo sapiens, Caco-2, 72 h, MTT, mean ± SD of three independent experiments; for SI (MDCK) CaCo-2: SI = IC50 MDCK1 / IC50 CaCo-2
How it was run: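 CaCo-2 cells, plated at 2 × 10^4 cells/mL in DMEM with 10 % FBS at 37 °C/5% CO2, were treated 24 h later with five 10-fold dilutions (10^−7 to 10^−4 M) for 72 h. Viability was measured by MTT (4 h, formazan dissolved in DMSO, OD 595 nm) against background and untreated controls. GI50 came from log-concentration versus percent-inhibition fits.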

[7] = tested on: HuT78 (T-cell lymphoma) cells; assay: MTT antiproliferative assay, HuT78; assay type: cell-based, human; settings: for IC50: 72 h, MTT, mean ± SD of three independent experiments; for SI (MDCK) HuT78: SI = IC50 MDCK1 / IC50 HuT78; for SI (BJ) HuT78: SI = IC50 BJ / IC50 HuT78
How it was run: as §1

[8] = tested on: HL60 (promyelocytic leukemia) cells; assay: MTT antiproliferative assay, HL60; assay type: cell-based, human; settings: for IC50: Homo sapiens, HL-60, 72 h, MTT, mean ± SD of three independent experiments; for SI (BJ) HL60: SI = IC50 BJ / IC50 HL60; for SI (MDCK) HL60: SI = IC50 MDCK1 / IC50 HL60
Procedure: as §2, §3, §4, §5, §6, §7, §8

[9] = 72 h, MTT, mean ± SD of three independent experiments, read-out: IC50 (µM) SW620

Row | SMILES | IC50 [1] | IC50 [2, 9] | IC50 [3] | IC50 (human fibroblasts (BJ)) | IC50 [4] | IC50 [5] | IC50 [6] | IC50 ([7]; Homo sapiens, HuT78, 72 h) | SI (MDCK) HuT78 [7] | IC50 [8] | SI (MDCK) HL60 [8] | SI (MDCK) THP1 [4] | SI (BJ) HuT78 [7] | melting point | other results
1 | COc1cc(-c2nc3ccc(C4=NCCCN4)cc3[nH]2)ccc1OCc1cn(CCN2CCOCC2)nn1 [46c] | > 100 µM | > 100 µM | > 100 µM | > 100 µM | > 100 µM | > 100 µM | > 100 µM | 4.1 µM | 19.6 | 50.7 ± 20.5 µM | 1.97 | – | – | – | toxicity to normal BJ cells (in words) (human fibroblasts (BJ)): not toxic; IC50 [7]: 5.1 ± 4.2 µM; SI (BJ) HL60 [8]: 1.97
2 | COc1cc(-c2nc3ccc(C4=NCCCN4)cc3s2)ccc1OCc1ccccn1 [39c] | > 100 µM | 34.2 ± 7.1 µM | 38.5 ± 1.6 µM | 38.1 ± 1.4 µM | 69.7 ± 6.3 µM | > 100 µM | 34.7 ± 2.8 µM | 12.7 ± 0.9 µM | 7.87 | 31.1 ± 3 µM | 3.22 | 1.43 | 3 | – | SI (MDCK) SW620 ([2]; SI = IC50 MDCK1 / IC50 SW620): 2.92; SI (MDCK) MDA-MB-231 [3]: 2.6; SI (MDCK) CaCo-2 [6]: 2.87
3 | c1ccc(COc2ccc(-c3nc4ccc(C5=NCCCN5)cc4[nH]3)cc2)nc1 [43a] | > 100 µM | > 100 µM | > 100 µM | 33 ± 20.3 µM | 29.7 ± 8.6 µM | > 100 µM | > 100 µM | 28.6 ± 3.9 µM | 3.5 | 40.4 ± 12 µM | 2.48 | 3.37 | – | – | –
4 | Cl.c1cc(-c2nc3ccc(C4=NCCN4)cc3s2)ccc1OCc1c[nH]nn1 [36a, 2-(4-((1H-1,2,3-triazol-4-yl)methoxy)phenyl)-6-(4,5-dihydro-1H-imidazol-2-yl)benzothiazole hydrochloride] | – | 5.6 ± 1.2 µM | 33 ± 4.9 µM | – | 20.4 ± 3.3 µM | 62.6 ± 22 µM | 24.8 ± 9.2 µM | 4.4 ± 3.9 µM | 7.23 | 18.8 ± 1.1 µM | – | – | – | 218 to 221 °C | IC50 ([2]; span over SW620, MDA-MB-231, HL60, THP1, read-out: IC50 values on additional set of tumor cells): 5.6 to 33 µM
5 | O=C(COc1ccc(-c2nc3ccc(C4=NCCCN4)cc3[nH]2)cc1)c1ccccc1 [42a] | > 100 µM | > 100 µM | 76.3 ± 11.8 µM | > 100 µM | 44.5 ± 5.3 µM | > 100 µM | > 100 µM | 7 ± 5.2 µM | 14.29 | 33.2 ± 1.8 µM | 3.01 | 2.25 | 14.29 | – | SI (BJ) MDA-MB-231 ([3]; SI = IC50 BJ / IC50 MDA-MB-231): 1.31; SI (MDCK) MDA-MB-231 [3]: 1.31; SI (BJ) THP1 [4]: 2.25; SI (BJ) HL60 [8]: 3.01
6 | O=C(COc1ccc(-c2nc3ccc(C4=NCCCN4)cc3s2)cc1F)c1ccccc1 [38b] | 26.6 ± 3.1 µM | 30.5 ± 9.2 µM | 42.4 ± 7.2 µM | 32.2 ± 2.8 µM | 14.7 ± 4.1 µM | 22.1 ± 1.2 µM | 19.4 ± 4.7 µM | 4 ± 0.9 µM | 6.65 | 15.8 ± 2.3 µM | 1.68 | 1.8 | 8.05 | – | SI (BJ) THP1 [4]: 2.19; SI (BJ) CaCo-2 ([6]; SI = IC50 BJ / IC50 CaCo-2): 1.66; SI (MDCK) CaCo-2 [6]: 1.37; SI (BJ) HL60 [8]: 2.04
7 | COc1cc(-c2nc3ccc(C4=NCCN4)cc3s2)ccc1OCc1cn(Cc2ccccc2)nn1.Cl [37c, 2-(3-Methoxy-4-((1-benzyl-1H-1,2,3-triazol-4-yl)methoxy)phenyl)-6-(4,5-dihydro-1H-imidazol-2-yl)benzothiazole hydrochloride] | 2.6 ± 0.1 µM | – | – | 4.8 ± 3.5 µM | – | 3.4 ± 0.2 µM | 4.5 ± 2.7 µM | 3 ± 1 µM | – | – | – | – | 1.6 | > 240 °C | –
8 | COc1cc(-c2nc3ccc(C4=NCCN4)cc3s2)ccc1OCc1ccccn1.Cl [35c, 2-(3-Methoxy-4-(pyridin-2-ylmethoxy)phenyl)-6-(4,5-dihydro-1H-imidazol-2-yl)benzothiazole hydrochloride] | 7.5 ± 3.5 µM | – | – | 6.7 ± 4.9 µM | – | 21.8 ± 5.5 µM | 18.2 ± 3.3 µM | 6.2 ± 2.7 µM | – | – | – | – | – | 219 to 223 °C | –
9 | COc1cc(-c2nc3ccc(C4=NCCN4)cc3s2)ccc1OCc1c[nH]nn1.Cl [36c, 2-(3-Methoxy-4-((1H-1,2,3-triazol-4-yl)methoxy)phenyl)-6-(4,5-dihydro-1H-imidazol-2-yl)benzothiazole hydrochloride] | > 100 µM | > 100 µM | > 100 µM | > 100 µM | > 100 µM | > 100 µM | > 100 µM | 1.6 ± 0.8 µM | 62.5 | > 100 µM | – | – | – | – | –
10 | c1ccc(Cn2cc(COc3ccc(-c4nc5ccccc5s4)cc3)nn2)cc1 [26a, 2-(4-((1-Benzyl-1H-1,2,3-triazol-4-yl)methoxy)phenyl)benzothiazole] | 36.7 ± 18 µM | – | – | > 100 µM | – | > 100 µM | > 100 µM | > 100 µM | – | – | – | – | – | 210 to 214 °C | –
11 | O=C(COc1ccc(-c2nc3ccc(C4=NCCCN4)cc3[nH]2)cc1F)c1ccccc1 [42b] | 67.3 ± 12.7 µM | 92.7 ± 34.3 µM | 84.5 ± 18.3 µM | 47 ± 3.3 µM | > 100 µM | > 100 µM | > 100 µM | 11.9 ± 3.6 µM | 5.66 | 44.4 ± 12.6 µM | 1.51 | – | 3.95 | – | –
